Like-named read-outs stand apart in the source and are kept apart here.
Legend:
LR.4 lymphoma [1] = conditions: LR.4 + IMMP
Excerpt: Thymus and spleen were studied since they correspond to lymphatic organs, liver which corresponds to the main organ to which the metastases of abdominal tumors and kidney are directed are directed by their high blood irrigation.

LR.4 lymphoma [2] = tested on: LR.4 lymphoma

Peptide LEDGPKFL + Zinc [IMMP]
Metastases (animals with metastases detected/total number of animals) (LR.4 lymphoma [1]; Kidney): 0/5
Metastases (animals with metastases detected/total number of animals) (LR.4 lymphoma [1]; Liver): 0/5
Metastases (animals with metastases detected/total number of animals) (LR.4 lymphoma [1]; Spleen): 0/5
Metastases (animals with metastases detected/total number of animals) (LR.4 lymphoma [1]; Thymus): 0/5
Reduction of tumor growth at long term (lymphoma LR.4; 10 doses for two weeks, from the fourth week): about 50%
Body weight (control percent) (lymphoma LR.4; IMMP alone, no tumor, week 0): 100 ± 3%
Body weight (control percent) (lymphoma LR.4; IMMP alone, no tumor, week 8): 101 ± 3%
Body weight (control percent) (lymphoma LR.4; IMMP alone, no tumor, week 12): 99 ± 4%
Body weight (control percent) (lymphoma LR.4; IMMP alone, no tumor, week 16): 101 ± 4%
Body weight (control percent) (lymphoma LR.4; IMMP alone, no tumor, week 20): 102 ± 3%
Body weight (control percent) (lymphoma LR.4; IMMP alone, no tumor, week 24): 100 ± 3%
Body weight (control percent) (lymphoma LR.4; IMMP alone, no tumor, week 28): 100 ± 2%
Body weight (control percent) (lymphoma LR.4; IMMP alone, no tumor, week 32): 100 ± 5%
Body weight (control percent) (lymphoma LR.4; IMMP alone, no tumor, week ±4): 102 ± 4%
Body weight (control percent) (lymphoma LR.4; LR.4 + IMMP, week 0, 200 ng/Kg i.p., ten doses): 100 ± 2%
Body weight (control percent) (lymphoma LR.4; LR.4 + IMMP, week 8): 106 ± 3 %
Body weight (control percent) (lymphoma LR.4; LR.4 + IMMP, week 12): 118 ± 7 %
Body weight (control percent) (lymphoma LR.4; LR.4 + IMMP, week 16): 120 ± 9 %
Body weight (control percent) (lymphoma LR.4; LR.4 + IMMP, week 20): 119 ± 9 %
Body weight (control percent) (lymphoma LR.4; LR.4 + IMMP, week 24): 120 ± 8 %
Body weight (control percent) (lymphoma LR.4; LR.4 + IMMP, week 28): 119 ± 11 %
Body weight (control percent) (lymphoma LR.4; LR.4 + IMMP, week 32): 120 ± 13 %
Body weight (control percent) (lymphoma LR.4; LR.4 + IMMP, week ±4): 115 ± 5 %
Body weight relative to control (lymphoma LR.4; tumor + IMMP, thirty day (untreated 25% higher)): almost equal to that of the control
Body weight (control percent) (LR.4 lymphoma [2]; IMMP alone, no tumor, week 0): 100 ± 2%
Survival (percent of live animals) (LR.4 lymphoma [2]; IMMP alone, no tumor, week 0): 100%
Body weight (control percent) (LR.4 lymphoma [2]; IMMP alone, no tumor, week 1): 100 ± 4%
Survival (percent of live animals) (LR.4 lymphoma [2]; IMMP alone, no tumor, week 1): 100%
Body weight (control percent) (LR.4 lymphoma [2]; IMMP alone, no tumor, week 2): 100 ± 5%
Survival (percent of live animals) (LR.4 lymphoma [2]; IMMP alone, no tumor, week 2): 100%
Body weight (control percent) (LR.4 lymphoma [2]; IMMP alone, no tumor, week 3): 100 ± 3%
Survival (percent of live animals) (LR.4 lymphoma [2]; IMMP alone, no tumor, week 3): 100%
Body weight (control percent) (LR.4 lymphoma [2]; IMMP alone, no tumor, week 4): 100 ± 3%
Survival (percent of live animals) (LR.4 lymphoma [2]; IMMP alone, no tumor, week 4): 100%
Body weight (control percent) (LR.4 lymphoma [2]; IMMP alone, no tumor, week 5): 100 ± 4%
Survival (percent of live animals) (LR.4 lymphoma [2]; IMMP alone, no tumor, week 5): 100%
Body weight (control percent) (LR.4 lymphoma [2]; IMMP alone, no tumor, week 6): 100 ± 3%
Survival (percent of live animals) (LR.4 lymphoma [2]; IMMP alone, no tumor, week 6): 100%
Body weight (control percent) (LR.4 lymphoma [2]; IMMP alone, no tumor, week 7): 100 ± 5%
Survival (percent of live animals) (LR.4 lymphoma [2]; IMMP alone, no tumor, week 7): 100%
Survival (percent of live animals) (LR.4 lymphoma [2]; IMMP alone, no tumor, week 8): 100%
Survival (percent of live animals) (LR.4 lymphoma [2]; IMMP alone, no tumor, week 9): 100%
Survival (percent of live animals) (LR.4 lymphoma [2]; IMMP alone, no tumor, week 10): 100%
Survival (percent of live animals) (LR.4 lymphoma [2]; IMMP alone, no tumor, week 11): 100%
Survival (percent of live animals) (LR.4 lymphoma [2]; IMMP alone, no tumor, week 12): 100%
Survival (percent of live animals) (LR.4 lymphoma [2]; IMMP alone, no tumor, week 13): 100%
Survival (percent of live animals) (LR.4 lymphoma [2]; IMMP alone, no tumor, week 14): 100%
Body weight (control percent) (LR.4 lymphoma [2]; LR.4 + IMMP, week 0): 100 ± 2%
Survival (percent of live animals) (LR.4 lymphoma [2]; LR.4 + IMMP, week 0): 100%
Body weight (control percent) (LR.4 lymphoma [2]; LR.4 + IMMP, week 1): 101 ± 4%
Survival (percent of live animals) (LR.4 lymphoma [2]; LR.4 + IMMP, week 1): 100%
Body weight (control percent) (LR.4 lymphoma [2]; LR.4 + IMMP, week 2): 116 ± 6 %
Survival (percent of live animals) (LR.4 lymphoma [2]; LR.4 + IMMP, week 2): 100%
Body weight (control percent) (LR.4 lymphoma [2]; LR.4 + IMMP, week 3): 125 ± 8 %
Survival (percent of live animals) (LR.4 lymphoma [2]; LR.4 + IMMP, week 3): 100%
Body weight (control percent) (LR.4 lymphoma [2]; LR.4 + IMMP, week 4): 126 ± 8 %
Survival (percent of live animals) (LR.4 lymphoma [2]; LR.4 + IMMP, week 4): 100%
Body weight (control percent) (LR.4 lymphoma [2]; LR.4 + IMMP, week 5): 154 ± 11 %
Survival (percent of live animals) (LR.4 lymphoma [2]; LR.4 + IMMP, week 5): 100%
Body weight (control percent) (LR.4 lymphoma [2]; LR.4 + IMMP, week 6): 152 ± 12 %
Survival (percent of live animals) (LR.4 lymphoma [2]; LR.4 + IMMP, week 6): 100%
Body weight (control percent) (LR.4 lymphoma [2]; LR.4 + IMMP, week 7): 150 ± 11 %
Survival (percent of live animals) (LR.4 lymphoma [2]; LR.4 + IMMP, week 7): 100%
Survival (percent of live animals) (LR.4 lymphoma [2]; LR.4 + IMMP, week 8): 100%

Source: patent US20150132328A1 (priority 2011, published 2015)
